The results in this text go back to US8048879B2, “Substituted 4,5,6,7-tetrahydro-isoxazolo[4,5-c]pyridine compounds and use thereof for producing medicaments” (Gruenenthal GmbH, priority 2005, dated 2011).

The experiment has as its target T1, 5-HT transporter (Rattus norvegicus, UniProt P31652).
T1 construct: from tissue; host or cells: rat brain (medulla and pons), synaptosomes, P2 fraction
The experiment is described as follows: 5-HT uptake inhibition, synaptosomes from rat brain (medulla and pons). Type of experiment: biochemical. The source says: b) Method for Determining Noradrenalin and 5-HT Uptake Inhibition:
Synaptosomes from rat brain regions are freshly isolated for in vitro studies, as described in the publication “The isolation of nerve endings from brain” by E. G. Gray and V. P. Whittaker, J. Anatomy 96, pages 79-88, 1962. The corresponding literature description is hereby introduced as a reference and is deemed to be part of the disclosure.
The tissue (hypothalamus for the determination of noradrenalin uptake inhibition and medulla and pons for the determination of 5-HT uptake inhibition) is homogenised in ice-cooled 0.32 M sucrose (100 mg of tissue/1 mL) in a glass homogeniser with Teflon pestle using five complete up and down strokes at 840 revolutions/minute.
The homogenate is centrifuged at 4° C. for 10 minutes at 1000 g. After subsequent centrifugation at 17000 g for 55 minutes, the synaptosomes (P2 fraction) are obtained, which are resuspended in 0.32 M […] (0.5 mL/100 mg of original weight).
The particular uptake is measured in a 96-well microtitre plate. The volume is 250 μL and the incubation proceeds at room temperature (approx. 20-25° C.) under an O2 atmosphere.
The incubation time is 7.5 minutes for [^3H]-NA and 5 minutes for [^3H]-5-HT. The 96 samples are then filtered through a Unifilter GF/B® microtitre plate (Packard) and washed with 200 mL of incubated buffer using a “Brabdel MPXRI-96T Cell-Harvester”. The Unifilter GF/B plate is dried for 1 hour at 55° C. The plate is then sealed with a Back Seal® (Packard) and 35 μL of scintillation fluid are added per well (Ultima Gold®, Packard). After sealing with a top Seal® (Packard) and establishing an equilibrium (around 5 hours), radioactivity is determined in a “Trilux 1450 Microbeta” (Wallac).
The quantity of protein used in the above determination corresponds to the values known from the literature, as for example described in “Protein measurement with the folin phenol reagent”, Lowry et al., J. Biol. Chem., 193, 265-275, 1951.
A detailed description of the method may additionally be found in the literature, for example in M. Ch. Frink, H.-H. Hennies, W. Engelberger, M. Haurand and B. Wilffert (1996) Arzneim.-Forsch./Drug Res. 46 (III), 11, 1029-1036.
The following characteristics were determined for the NA or 5-HT transporter: […]

T1 sequence (P31652 whole entry): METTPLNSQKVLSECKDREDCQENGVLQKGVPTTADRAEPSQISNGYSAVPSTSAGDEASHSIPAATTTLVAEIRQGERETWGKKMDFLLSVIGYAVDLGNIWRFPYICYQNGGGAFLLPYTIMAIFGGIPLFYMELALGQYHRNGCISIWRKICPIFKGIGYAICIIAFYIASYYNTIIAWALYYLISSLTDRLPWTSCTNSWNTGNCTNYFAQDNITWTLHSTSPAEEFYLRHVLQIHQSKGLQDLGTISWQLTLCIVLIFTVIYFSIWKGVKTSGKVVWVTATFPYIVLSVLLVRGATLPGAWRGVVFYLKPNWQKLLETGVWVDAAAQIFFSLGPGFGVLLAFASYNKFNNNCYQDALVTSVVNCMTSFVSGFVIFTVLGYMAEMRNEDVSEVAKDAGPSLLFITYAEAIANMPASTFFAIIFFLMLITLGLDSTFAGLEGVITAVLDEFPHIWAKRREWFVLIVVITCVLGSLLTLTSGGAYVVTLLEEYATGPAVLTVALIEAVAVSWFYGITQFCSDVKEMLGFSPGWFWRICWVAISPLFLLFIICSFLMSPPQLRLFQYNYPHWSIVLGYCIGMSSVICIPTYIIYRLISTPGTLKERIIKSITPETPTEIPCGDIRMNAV

For `COCCNC(=O)c1noc2c1CN(C(=O)Nc1ccc(C)c([N+](=O)[O-])c1)CC2` [Example 5, 6,7-dihydro-4H-isoxazolo[4,5-c]pyridine-3,5-dicarboxylic acid 3-[(2-methoxy-ethyl) amide]5-[(4-methyl-3-nitro-phenyl) amide]], the “5-HT uptake (rat), 10 μM, % inhibition” value came to 47%.

On to `CCSCCNC(=O)c1noc2c1CN(C(=O)Nc1cccc(OC)c1)CC2` [Example 11, 6,7-dihydro-4H-isoxazolo[4,5-c]pyridine-3,5-dicarboxylic acid 3-[(2-ethylsulfanyl-ethyl) amide]5-[(3-methoxyphenyl) amide]], for which the “5-HT uptake (rat), 10 μM, % inhibition” value is 54%.

By inhibition is commonly meant the change of the read-out against control, counted positive when it falls. Higher therefore signals a response far below the control. `CC(C)C(NC(=O)c1noc2c1CN(S(=O)(=O)c1cccc(C(F)(F)F)c1)CC2)C(=O)OC(C)(C)C` (stereo not drawn) [Example 67, 3-methyl-2-{[5-(3-trifluoromethyl-benzenesulfonyl)-4,5,6,7-tetrahydro-isoxazolo[4,5-c]pyridine-3-carbonyl]-amino}-butanoic acid tert-butyl ester] showed an inhibition at 10 µM of 73%.

As to `O=C(NCc1ccccc1)c1noc2c1CN(C(=O)Nc1ccccc1)CC2` [Example 17, 6,7-dihydro-4H-isoxazolo[4,5-c]pyridine-3,5-dicarboxylic acid 3-benzyl amide 5-phenyl amide], the “5-HT uptake (rat), 10 μM, % inhibition” value was 64%.

In turn, `Cc1nn(-c2ccccc2)nc1C(=O)N1CCc2onc(C(=O)NCc3ccc(F)cc3)c2C1` [Example 72, 5-(5-methyl-2-phenyl-2H-[1,2,3]triazole-4-carbonyl)-4,5,6,7-tetrahydro-isoxazolo[4,5-c]pyridine-3-carboxylic acid 4-fluorobenzyl amide] displayed an inhibition at 10 µM of 70%.

`CCC(C)(CC(=O)O)CC(=O)N1CCc2onc(C(=O)NCCOC)c2C1` (stereo not drawn) [Example 26, 3-ethyl-5-[3-(2-methoxy-ethylcarbamoyl)-6,7-dihydro-4H-isoxazolo[4,5-c]pyridin-5-yl]-3-methyl-5-oxo-pentanoic acid] gave an inhibition at 10 µM of 54%.

The compound `O=C(NCc1ccc(F)cc1)c1noc2c1CN(C(=O)c1ccc3ncccc3c1)CC2` [Example 124, 5-(quinoline-6-carbonyl)-4,5,6,7-tetrahydro-isoxazolo[4,5-c]pyridine-3-carboxylic acid 4-fluorobenzyl amide] displayed an inhibition at 10 µM of 65%.

`Cc1ccc(N2CCN(C(=O)c3noc4c3CN(S(=O)(=O)c3cc(Cl)ccc3Cl)CC4)CC2)c(C)c1` [Example 65, [5-(2,5-dichloro-benzenesulfonyl)-4,5,6,7-tetrahydro-isoxazolo[4,5-c]pyridin-3-yl]-[4-(2,4-dimethyl-phenyl)-piperazin-1-yl]-methanone]: the inhibition at 10 µM amounted to 88%.

For `CC(=O)Nc1ccc(C(=O)N2CCc3onc(C(=O)NCC4CC4)c3C2)cc1` [Example 45, 5-(4-acetylamino-benzoyl)-4,5,6,7-tetrahydro-isoxazolo[4,5-c]pyridine-3-carboxylic acid cyclopropylmethyl amide], testing at 10 µM gave an inhibition of 85%.

As for `COC(=O)CCCC(=O)N1CCc2onc(C(=O)NCc3ccc(F)cc3)c2C1` [Example 78, 5-[3-(4-fluoro-benzylcarbamoyl)-6,7-dihydro-4H-isoxazolo[4,5-c]pyridin-5-yl]-5-oxo-pentanoic acid methyl ester], testing at 10 µM gave an inhibition of 70%.

Turning to `COc1ccc(S(=O)(=O)N2CCc3onc(C(=O)Nc4ccc(C)cc4)c3C2)cc1` [Example 53, 5-(4-methoxy-benzenesulfonyl)-4,5,6,7-tetrahydro-isoxazolo[4,5-c]pyridine-3-carboxylic acid p-tolyl amide], the inhibition at 10 µM is 89%.

Take `CCOC(=O)c1cccc(NC(=O)N2CCc3onc(C(=O)NCc4ccc(C)o4)c3C2)c1` [Example 23, 3-({3-[(5-methyl-furan-2-ylmethyl)-carbamoyl]-6,7-dihydro-4H-isoxazolo[4 5-c]pyridine-5-carbonyl}-amino)-benzoic acid ethyl ester]: the “5-HT uptake (rat), 10 μM, % inhibition” value is recorded as 52%.
